Data: publication PMC4613501, “Diversity in the structures and ligand-binding sites of nematode fatty acid and retinol-binding proteins revealed by Na-FAR-1 from Necator americanus” (Biochemical Journal, 2015)

Key:
Format in all cases: binding
Na-FAR-1 [1] = target: T1, Na-FAR-1 (Necator americanus, UniProt W2SRJ3); test: fluorescence emission spectroscopy; conditions: delipidated protein
T1 construct: gene NECAME_14208; His-tagged; expressed in E. coli BL21 (lambda DE3), selenomethionine form in B834
T1 sequence (W2SRJ3 entry or part of it): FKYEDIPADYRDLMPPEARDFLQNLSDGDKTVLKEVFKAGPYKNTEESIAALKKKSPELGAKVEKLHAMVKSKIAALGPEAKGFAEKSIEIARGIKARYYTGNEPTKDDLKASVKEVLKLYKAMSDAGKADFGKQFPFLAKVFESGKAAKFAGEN

Na-FAR-1 [2] = target: T1, Na-FAR-1; test: X-ray crystallography; conditions: selenomethionine-labelled protein; co-purified from E. coli, palmitate chosen as fit to a C16 fatty acid density; internal cavity around Lys96
Na-FAR-1 [3] = target: T1, Na-FAR-1; test: NMR titration ([…] HSQC chemical shift perturbation); conditions: apo protein 0.4 mM, sodium oleate, 20 mM sodium phosphate pH 7.20, 311 K; multiple sites, no fitted constant

SMILES: CN(C)c1cccc2c(S(=O)(=O)NCCCCCCCCCCC(=O)O)cccc12 [DAUDA]
- fluorescence emission spectroscopy (Na-FAR-1 [1]; PBS, 1 μM DAUDA, 1 μM protein, excitation 345 nm): Na-FAR-1 bound the fluorescent FA analogue DAUDA and the naturally fluorescent lipid retinol

SMILES: CCCCCCCCCCCCCCCC(=O)O [palmitate]
- X-ray crystallography (Na-FAR-1 [2]): Since the predominant FA found in E. coli lipids is palmitate, we fitted this

SMILES: CC1=C(/C=C/C(C)=C/C=C/C(C)=C/CO)C(C)(C)CCC1 [retinol]
- fluorescence emission spectroscopy (Na-FAR-1 [1]; retinol in ethanol, 1.5 μM protein, excitation 350 nm, isomer not stated): Na-FAR-1 bound the fluorescent FA analogue DAUDA and the naturally fluorescent lipid retinol

SMILES: CCCCCCCC/C=C\CCCCCCCC(=O)O [oleic acid]
- NMR titration (15N HSQC chemical shift perturbation) (Na-FAR-1 [3]): the protein binds up to at least four oleate molecules
